Usually IC50 stands for the point on the concentration scale where inhibition reaches its midpoint. High values mean weaker potency, low ones greater potency.

From article PMC8457062, “Beam Search for Automated Design and Scoring of Novel ROR Ligands with Machine Intelligence” (Angewandte Chemie (International Ed. in English), 2021) come the findings set out here.

Holding throughout (format): cell-based
In one assay the target is T1, RORγ (Homo sapiens, UniProt P51449).
T1 construct: uniprot ID P51449, aa 263-518; expressed in transfected cells; host or cells: HEK293T
T1 sequence (P51449 263-518): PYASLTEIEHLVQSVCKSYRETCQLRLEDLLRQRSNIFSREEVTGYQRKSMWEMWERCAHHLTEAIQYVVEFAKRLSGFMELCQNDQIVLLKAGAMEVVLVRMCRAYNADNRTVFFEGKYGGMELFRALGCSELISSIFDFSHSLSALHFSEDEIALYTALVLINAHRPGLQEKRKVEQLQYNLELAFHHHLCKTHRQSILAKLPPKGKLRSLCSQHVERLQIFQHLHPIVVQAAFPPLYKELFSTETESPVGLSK
Put plainly: Gal4-RORγ hybrid reporter gene assay in HEK293T cells. The settings on record: for IC50: Gal4 hybrid reporter gene assay, inverse agonism, mean±S.E.M., n≥4; for potency on RORγ compared to the related RORα and RORβ isoforms (subtype preference): Gal4 hybrid reporter gene assays. The source says:
(§1) In vitro characterization of compounds 1, 2, and 3 in Gal4‐ROR hybrid reporter gene assays confirmed inverse RORγ agonism with micromolar to sub‐micromolar IC50 values (Table 1).
(§2) In vitro Characterization Methods
(§3) Hybrid reporter gene assays. The hybrid receptor plasmids pFA-CMV-hRORα-LBD (NR1F1, isoform 1, uniprot ID P35398-2, aa 266-523), pFA-CMV-hRORβ-LBD (NR1F2, isoform 2, uniprot ID Q92753-2, aa 216-470), and pFA-CMV-hRORγ-LBD (NR1F3, isoform 1, uniprot ID P51449, aa 263-518) encode the Gal4-DBD fused to the hinge region and ligand binding domain of the canonical isoform of the respective human nuclear receptor and were cloned as described previously[13,14] using cDNA from SourceBioScience (Nottingham, UK). The Gal4-responsive firefly luciferase reporter pFR-Luc (Stratagene, La Jolla, CA, USA) and pRL-SV40 (Promega, Madison, WI, USA; internal control) were used together with either pFA-CMV-NR-LBD clone for the hybrid reporter gene assays.
(§4) HEK293T cells (German Collection of Microorganisms and Cell Culture GmbH, DSMZ) were cultured in Dulbecco’s modified Eagle’s medium (DMEM), high glucose supplemented with 10 % fetal calf serum (FCS), sodium pyruvate (1 mM), penicillin (100 U/mL), and streptomycin (100 μg/mL) at 37 °C and 5 % CO2 and seeded in 96-well plates (3×10^4 cells/well) twenty-four hours prior to transfection. Before transfection, medium was changed to Opti -MEM without supplements and transient transfection with above mentioned plasmids (pFR-Luc, pRL-SV40 and one pFA-CMV-NR-LBD clone) was carried out with Lipofectamine LTX reagent (Invitrogen) according to the manufacturer’s protocol. Five hours after transfection, medium was changed to Opti -MEM supplemented with penicillin (100 U/mL) a nd streptomycin (100 μg/mL) additionally containing 0.1 % DMSO and the respective test compound or 0.1 % DMSO alone as untreated control. Each concentration was tested in duplicates and each experiment was repeated independently at least two times. Followi ng overnight (14−16 h) incubation, cells were assayed for luciferase activity using the Dual - Glo Luciferase Assay System (Promega) according to the manufacturer’s protocol. Luminescence was measured with a Tecan Spark luminometer (Tecan Deutschland GmbH, G ermany). Normalization of transfection efficiency and cell growth was done by division of firefly luciferase data by Renilla luciferase data and multiplying the value by 1000 resulting in relative light units (RLU). Fold reporter repression was obtained by dividing the mean RLU of a test compound at a respective concentration by the mean RLU of the 0.1% DMSO control. IC 50 values were obtained by plotting fold reporter activation vs test compound concentrations and fitting the resulting sigmoidal curve with a four-parameter logistic regression in SigmaPlot 12.5 (Systat Software GmbH, Erkrath, Germany). The Gal4 - ROR hybrid assays were validated with the reference inverse agonists SR1001 and SR1078 , which yielded IC50 values in agreement […]
(1 picture or pasted object on this page, not shown here)

In another assay the target is T2, RORβ (Homo sapiens, UniProt Q92753).
T2 construct: uniprot ID Q92753-2, aa 216-470; expressed in transfected cells; host or cells: HEK293T
T2 sequence (Q92753 216-470): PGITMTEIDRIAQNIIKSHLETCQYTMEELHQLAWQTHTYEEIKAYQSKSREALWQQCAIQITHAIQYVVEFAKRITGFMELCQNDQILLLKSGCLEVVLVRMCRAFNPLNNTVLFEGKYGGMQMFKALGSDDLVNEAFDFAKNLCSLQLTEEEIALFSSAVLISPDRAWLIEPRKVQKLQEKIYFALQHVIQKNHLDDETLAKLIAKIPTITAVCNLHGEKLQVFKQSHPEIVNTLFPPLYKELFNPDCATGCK
As to the kind of experiment: Gal4-RORβ hybrid reporter gene assay in HEK293T cells. The settings on record: for IC50: Gal4 hybrid reporter gene assay, inverse agonism, mean±S.E.M., n≥4.
Text: as §1, §2, §3
as §4, with “control.” for “control. IC 50 values were obtained by plotting fold reporter activation vs test compound concentrations and fitting the resulting sigmoidal curve with a four-parameter logistic regression in SigmaPlot 12.5 (Systat Software GmbH, Erkrath, Germany). The Gal4 - ROR hybrid assays were validated with the reference inverse agonists SR1001 and SR1078 , which yielded IC50 values in agreement”

For another assay, the target named is T3, RORα (Homo sapiens, UniProt P35398).
T3 construct: uniprot ID P35398-2, aa 266- 523; expressed in transfected cells; host or cells: HEK293T
T3 sequence (P35398 266-523): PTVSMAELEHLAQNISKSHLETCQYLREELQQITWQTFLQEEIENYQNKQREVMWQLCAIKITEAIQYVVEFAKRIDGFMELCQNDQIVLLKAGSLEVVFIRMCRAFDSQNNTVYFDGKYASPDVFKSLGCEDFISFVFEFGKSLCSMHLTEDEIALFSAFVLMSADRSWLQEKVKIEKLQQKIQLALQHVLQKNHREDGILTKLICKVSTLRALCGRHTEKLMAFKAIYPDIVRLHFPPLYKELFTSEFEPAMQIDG
Put plainly: Gal4-RORα hybrid reporter gene assay in HEK293T cells. The settings on record: for IC50: Gal4 hybrid reporter gene assay, inverse agonism, mean±S.E.M., n≥4.
Text: as §1, §2, §3
as §4, with “control.” for “control. IC 50 values were obtained by plotting fold reporter activation vs test compound concentrations and fitting the resulting sigmoidal curve with a four-parameter logistic regression in SigmaPlot 12.5 (Systat Software GmbH, Erkrath, Germany). The Gal4 - ROR hybrid assays were validated with the reference inverse agonists SR1001 and SR1078 , which yielded IC50 values in agreement”
(In a reporter assay the amount or activity of a reporter protein is the signal.)

Setting [1] is: precise IC50 could not be determined due to cytotoxicity.

Molecules are shown by their SMILES.

Regarding `O=C1CC2(CCCC2)CC(=O)N1CCCCN1CCN(c2ccc(Cl)cc2)CC1` [Compound 1], the IC50 at RORγ was 4600 ± 500 nM; against RORβ, above 10 µM; against RORα, above 10 µM. Moreover, at RORβ (setting [1]), the “activity on RORβ (in words)” value is given as “additionally active”. The “activity on RORα (in words)” value at RORα (setting [1]) was “additionally active”.
On to `O=S(=O)(Cc1ccccc1)N(Cc1ccc(N2CCC(C(F)(F)F)CC2)cc1F)C1CCC1` [Compound 2], for which the IC50 against RORγ was 370 ± 50 nM; at RORβ it was 22 ± 1 µM; against RORα, 23 ± 3 µM. Besides, the “potency on RORγ compared to the related RORα and RORβ isoforms (subtype preference)” value at RORγ is given as “more than tenfold higher potency”.
Turning to `O=S(=O)(Cc1ccccc1)N(Cc1ccc(N2CCC(C(F)(F)F)CC2)cc1)C1CCC1` [Compound 3], the IC50 was 680 ± 70 nM at RORγ, 7.6 ± 0.5 µM at RORβ and 10 ± 1 µM against RORα. Besides, on RORγ, the “potency on RORγ compared to the related RORα and RORβ isoforms (subtype preference)” value is on record as “more than tenfold higher potency”.
